This passage reports viability, T/C and IC50 results from PubChem BioAssay AID2060503 (Molecular Pharmacology Branch, DTP, NCI, 2025).

Where “and” joins values, the source holds several entries; their conditions need not be identical. Equal values may be shown once.

The assay deals with 817829-284-R-J1-PDC complex spheroids, viability. In words: Anticancer human tumor 817829-284-R-J1-PDC patient-derived colon adenocarcinoma cell line growth inhibition [GQUAD]. To be noted: for viability, T/C: stronger effect = lower value. The source says:
DNA G-quadruplex Stabilizer Agents in Combinations in Complex Spheroids
A high-throughput screen of multi-cell type tumor spheroids was designed to identify active combinations of DNA G-quadruplex stabilizer agents and targeted small molecules. Complex spheroids include a stromal component modeled by human endothelial cells (HUVEC) and fibroblasts modeled by human mesenchymal stem cells (MSCs). The concentration ranges selected for each drug and investigational agent were based upon clinically achievable concentrations if the clinical Cmax of the agent was known.
Compounds. The drugs and investigational agents: pidnarulex (CX-5461; NSC782164), APTO-253 (NSC789042), BRACO-19 (NSC847499), peposertib (NSC802822), ceralasertib (NSC780249), elimusertib (NSC800525), camonsertib (NSC841442), AZD-1390 (NSC803789), olaparib (NSC753686), talazoparib (NSC767125), ART-558 (NSC835418), sotorasib (NSC818433), MRTX-1133 (NSC836407), SN-38 (NSC673596), topotecan (NSC609699), etoposide (NSC141540), doxorubicin (NSC123127), gemcitabine (NSC613327), 5-fluorouracil (NSC19893), paclitaxel (NSC125973), vemurafenib (NSC761431), panobinostat (NSC761190), R-306465 (JNJ-16241199; NSC773264), adavosertib (NSC754352), TP-3654 (NSC805149), carboplatin (NSC241240), KSQ-4279 (NSC840948), and staurosporine (NSC755774) were obtained from the National Cancer Institute (NCI) Developmental Therapeutics Program Chemical Repository (34). The FDA-approved anticancer drug set is available from the NCI Developmental Therapeutics Program. […] The stock solutions were prepared in dimethyl sulfoxide (DMSO, Sigma-Aldrich, St. Louis, MO, cat. D2650) at 800-fold the tested concentration and stored at -70 degrees C prior to their use. All drugs and investigational agents were tested over a range starting from a high concentration at or near the clinical Cmax and decreasing in half-log increments. If the clinical Cmax for an agent had not been determined, the highest concentration tested was 10 microM.
2.3 Cell Culture. All cells were maintained in an incubator at 37 degrees C and 5% CO2 with 95% humidity. The PDC lines were cultured according to standard operating procedures established by the NCI PDMR. All PDCs were thawed and cultured in Matrigel-coated flasks prepared with a working solution of 1X Ham's F-12 nutrient mix, without supplementation (Invitrogen, cat. 11765054), 100 U/mL penicillin-streptomycin (Invitrogen, cat. 15140122), and 2.5% Matrigel (Corning Inc., cat. 354248) for the first three passages. The 857933-349-R-J2-PDC line was cultured in 6C/Colon 1B media, which includes advanced DMEM/F-12 (Thermo Fisher Scientific, cat. 12634028), 10 mM HEPES (Thermo Fisher Scientific, cat. 15630080), 1X GlutaMAX supplement (Thermo Fisher Scientific, cat. 35050061), 0.1 mg/mL primocin (InvivoGen, cat. ant-pm-2), 10% defined fetal bovine serum, heat inactivated (HyClone Laboratories Inc., cat. SH30070.03HI), 50% L-WRN conditioned media (ATCC, cat. CRL-3276), 1.25 mM N-Acetyl-L-cysteine (Sigma-Aldrich, cat. A9165), 10 mM nicotinamide (Sigma-Aldrich, cat. N0636), 1X B-27 supplement (Thermo Fisher Scientific, cat. 17504044), 1X N-2 supplement (Thermo Fisher Scientific, cat. 17502048), 10 microM Y-27632 dihydrochloride (Tocris Bioscience, cat. 1254), and 50 ng/mL human EGF recombinant protein (Thermo Fisher Scientific, cat. PHG0311). The 485176-168-R4-J1-PDC line was cultured in Panc media, which includes all 6C/Colon 1B media components plus 100 ng/mL human FGF-10 (Thermo Fisher Scientific, cat. 100-26), 500 nM SB-431542 (Selleckchem, cat. S1067), and gastrin (Tocris, cat. 3006).
[…]
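Also: spheroids exposed to agents for 7 days before readout.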
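For viability, T/C in this document: percent viability relative to DMSO vehicle control taken as 100%.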

Broadly, the viability, T/C is the ratio of treated to control. The IC50 is the concentration needed to halve the response being measured. In the case of `CC(=O)O[C@H]1C(=O)[C@@]2(C)[C@H]([C@H](OC(=O)c3ccccc3)[C@]3(O)C[C@H](OC(=O)[C@H](O)[C@@H](NC(=O)c4ccccc4)c4ccccc4)C(C)=C1C3(C)C)[C@]1(OC(C)=O)CO[C@@H]1C[C@@H]2O`, the viability, T/C runs as follows: (compound 0.0316 µM) 5.56% and 11.2% and 8.51%; (compound 0.1 µM) 5.44% and 6.01% and 3.69%; (compound 0.316 µM) 5.01% and 4.83% and 4.1%; (compound 1 µM) 4.55% and 4.35% and 3.93%; (compound 3.16 µM) 3.56% and 3.34% and 3.72%; (compound 10 µM) 5.03% and 4.92% and 4.14%. Further, where the note is “curve of compound”, the IC50 is under 31.6 nM.

On to `O=c1[nH]cc(F)c(=O)[nH]1` + CN(C)c1ccc(Nc2c3ccc(NC(=O)CCN4CCCC4)cc3nc3cc(NC(=O)CCN4CCCC4)ccc23)cc1, for which the IC50 runs as follows: (curve of first compound, second compound 0.0316 µM) 2120 nM; (curve of first compound, second compound 0.1 µM) 2450 nM; (curve of first compound, second compound 0.316 µM) 2400 nM; (curve of first compound, second compound 1 µM) 2700 nM; (curve of first compound, second compound 3.16 µM) 2510 nM; (curve of first compound, second compound 10 µM) 2690 nM. In addition, the viability, T/C is 112% (second compound 0.0316 µM, first compound 0.0316 µM); 104% (second compound 0.0316 µM, first compound 0.1 µM); 119% (second compound 0.0316 µM, first compound 0.316 µM); 73.4% (second compound 0.0316 µM, first compound 1 µM); 44.2% (second compound 0.0316 µM, first compound 3.16 µM); 30.7% (second compound 0.0316 µM, first compound 10 µM). Moreover, the viability, T/C reads like this: (second compound 0.1 µM, first compound 0.0316 µM) 101%; (second compound 0.1 µM, first compound 0.1 µM) 102%; (second compound 0.1 µM, first compound 0.316 µM) 94.3%; (second compound 0.1 µM, first compound 1 µM) 84.3%; (second compound 0.1 µM, first compound 3.16 µM) 39.9%; (second compound 0.1 µM, first compound 10 µM) 29.3%. Besides, the viability, T/C runs as follows: (second compound 0.316 µM, first compound 0.0316 µM) 102%; (second compound 0.316 µM, first compound 0.1 µM) 106%; (second compound 0.316 µM, first compound 0.316 µM) 97.1%; (second compound 0.316 µM, first compound 1 µM) 78.7%; (second compound 0.316 µM, first compound 3.16 µM) 40.7%; (second compound 0.316 µM, first compound 10 µM) 29.6%. For the same molecule, the viability, T/C was 99.5% (second compound 1 µM, first compound 0.0316 µM); 101% (second compound 1 µM, first compound 0.1 µM); 108% (second compound 1 µM, first compound 0.316 µM); 83% (second compound 1 µM, first compound 1 µM); 45.7% (second compound 1 µM, first compound 3.16 µM); 31.6% (second compound 1 µM, first compound 10 µM). Also, the viability, T/C reads like this: (second compound 3.16 µM, first compound 0.0316 µM) 91.2%; (second compound 3.16 µM, first compound 0.1 µM) 96.7%; (second compound 3.16 µM, first compound 0.316 µM) 102%; (second compound 3.16 µM, first compound 1 µM) 74.1%; (second compound 3.16 µM, first compound 3.16 µM) 45.4%; (second compound 3.16 µM, first compound 10 µM) 29%. Moreover, the viability, T/C is 102% (second compound 10 µM, first compound 0.0316 µM); 95.9% (second compound 10 µM, first compound 0.1 µM); 100% (second compound 10 µM, first compound 0.316 µM); 80.5% (second compound 10 µM, first compound 1 µM); 45.3% (second compound 10 µM, first compound 3.16 µM); 31.9% (second compound 10 µM, first compound 10 µM).

Take `CC1COCCN1c1cc(C2(O)CC3CCC(C2)O3)c2cnn(-c3ccn[nH]3)c2n1` (stereo not drawn): the viability, T/C is, setting by setting: (compound 0.0316 µM) 39.5% and 42.2% and 31.3%; (compound 0.1 µM) 10.2% and 9.96% and 13.3%; (compound 0.316 µM) 7.94% and 8.95%; (compound 1 µM) 6.19% and 4.8% and 7.29%; (compound 3.16 µM) 5.19% and 5.01% and 5.9%; (compound 10 µM) 2.86% and 3.51% and 4.63%. The IC50 (curve of compound) was under 31.6 nM.

For the molecule `CC(C)n1c(=O)n(C)c2cnc3cc(F)c(-c4ccc(OCCCN5CCCCC5)nc4)cc3c21`, the viability, T/C (compound 0.0316 µM) was 106% and 107% and 100%; the viability, T/C (compound 0.1 µM) was 101% and 102% and 97.5%; the viability, T/C (compound 0.316 µM) is 95.1% and 105% and 102%; the viability, T/C (compound 1 µM) was 89.8% and 100% and 89.2%; the viability, T/C (compound 3.16 µM) was 104% and 113% and 101%; the viability, T/C (compound 10 µM) is 107% and 103% and 60.3%. Moreover, the IC50 (curve of compound) was over 10000 nM.
